Laboratory results from ChEMBL document CHEMBL2203234, “Optimisation of imidazole compounds as selective TAAR1 agonists: discovery of RO5073012” (Bioorg Med Chem Lett, 2012).

Key:
[1] = Inhibition of human I1 receptor by CEREP assay
[2] = biological target: cGMP-specific 3',5'-cyclic phosphodiesterase (Canis lupus familiaris) (UniProt O77746); test: Inhibition of human PDE5 at 10 uM by CEREP assay
[3] = biological target: Histamine H2 receptor (Homo sapiens) (UniProt P25021); test: Inhibition of human H2 receptor at 10 uM by CEREP assay
[4] = biological target: Galanin receptor type 2 (Homo sapiens) (UniProt O43603); test: Inhibition of human GAL2 receptor at 10 uM by CEREP assay
[5] = biological target: Estrogen receptor (Homo sapiens) (UniProt P03372); test: Inhibition of human estrogen receptor at 10 uM by CEREP assay
[6] = species on record: Homo sapiens; test: Inhibition of human AMPA receptor at 10 uM by CEREP assay
[7] = biological target: 5-hydroxytryptamine receptor 1D (Homo sapiens) (UniProt P28221); test: Inhibition of 5-HT1D receptor at 10 uM by CEREP assay
[8] = Inhibition of K+v channel at 10 uM by CEREP assay
[9] = Inhibition of tyrosine hydroxylase at 10 uM by CEREP assay
[10] = biological target: Androgen receptor (Homo sapiens) (UniProt P10275); test: Inhibition of human androgen receptor at 10 uM by CEREP assay
[11] = biological target: Acetylcholinesterase (Homo sapiens) (UniProt P22303); test: Inhibition of human Acetylcholinesterase at 10 uM by CEREP assay
[12] = biological target: Glucagon receptor (Homo sapiens) (UniProt P47871); test: Inhibition of human glucagon receptor at 10 uM by CEREP assay
[13] = Cmax in mouse at 7.1 mg/kg, po; format: ADME, organism-based; design: dose 7.1 mg/kg, route oral; details: in vivo
[14] = Inhibition of Guanylyl cyclase at 10 uM by CEREP assay
[15] = biological target: Pituitary adenylate cyclase-activating polypeptide type I receptor (Homo sapiens) (UniProt P41586); test: Inhibition of human PAC1 receptor at 10 uM by CEREP assay
[16] = biological target: Vasoactive intestinal polypeptide receptor 1 (Homo sapiens) (UniProt P32241); test: Inhibition of human VIP1 receptor at 10 uM by CEREP assay
[17] = biological target: Phosphodiesterase 3 (Homo sapiens) (UniProt Q14432+Q13370); test: Inhibition of human PDE3 at 10 uM by CEREP assay; format: protein assay
[18] = biological target: Glutamate [NMDA] receptor (Homo sapiens) (UniProt Q05586+Q12879+Q13224+O15399+O60391+Q14957+Q8TCU5); test: Inhibition of human NMDA receptor at 10 uM by CEREP assay
[19] = biological target: Neuropeptide Y receptor type 2 (Homo sapiens) (UniProt P49146); test: Inhibition of human Y2 receptor at 10 uM by CEREP assay
[20] = biological target: Gastrin/cholecystokinin type B receptor (Homo sapiens) (UniProt P32239); test: Inhibition of human CCKB receptor at 10 uM by CEREP assay
[21] = biological target: C-C chemokine receptor type 2 (Homo sapiens) (UniProt P41597); test: Inhibition of human CCR2 receptor at 10 uM by CEREP assay
[22] = biological target: Motilin receptor (Homo sapiens) (UniProt O43193); test: Inhibition of human Motilin receptor at 10 uM by CEREP assay
[23] = Cmax in rat at 10 mg/kg, po; format: ADME, organism-based; design: dose 10 mg/kg, route oral; details: in vivo
[24] = biological target: Cysteinyl leukotriene receptor 1 (Homo sapiens) (UniProt Q9Y271); test: Inhibition of human LTD4 receptor at 10 uM by CEREP assay
[25] = Inhibition of sst receptor at 10 uM by CEREP assay
[26] = Inhibition of Na+ channel site 2 at 10 uM by CEREP assay
[27] = test system: CHL; test: Selectivity ratio of Ki for human adrenergic alpha2A receptor expressed in CHL cells to Ki for human TAAR1 receptor; format: cell-based
[28] = biological target: 5-hydroxytryptamine receptor 4 (Homo sapiens) (UniProt Q13639); test: Inhibition of human 5-HT4 receptor at 10 uM by CEREP assay
[29] = biological target: D(4) dopamine receptor (Homo sapiens) (UniProt P21917); test: Inhibition of human D4.4 receptor at 10 uM by CEREP assay
[30] = biological target: B1 bradykinin receptor (Homo sapiens) (UniProt P46663); test: Inhibition of human B1 receptor at 10 uM by CEREP assay
[31] = Inhibition of central BZD receptor at 10 uM by CEREP assay
[32] = Inhibition of sigma receptor at 10 uM by CEREP assay
[33] = Inhibition of L-type Ca2+ channel DHP site at 10 uM by CEREP assay
[34] = biological target: Beta-2 adrenergic receptor (Homo sapiens) (UniProt P07550); test: Inhibition of human beta 2 adrenergic receptor at 10 uM by CEREP assay
[35] = biological target: Sodium-dependent dopamine transporter (Homo sapiens) (UniProt Q01959); test: Inhibition of human DA transporter at 10 uM by CEREP assay
[36] = biological target: 5-hydroxytryptamine receptor 1B (Homo sapiens) (UniProt P28222); test: Inhibition of 5-HT1B receptor at 10 uM by CEREP assay
[37] = biological target: B2 bradykinin receptor (Homo sapiens) (UniProt P30411); test: Inhibition of human B2 receptor at 10 uM by CEREP assay
[38] = biological target: Muscarinic acetylcholine receptor M1 (Homo sapiens) (UniProt P11229); test: Inhibition of human M1 receptor at 10 uM by CEREP assay
[39] = species on record: Homo sapiens; test: Inhibition of human Choline transporter at 10 uM by CEREP assay
[40] = Half life in mouse at 7.1 mg/kg, po; format: ADME, organism-based; design: dose 7.1 mg/kg, route oral; details: in vivo
[41] = biological target: 5-hydroxytryptamine receptor 1A (Homo sapiens, UniProt P08908); test: Inhibition of human 5-HT1A receptor by CEREP assay
[42] = species on record: Homo sapiens; test: Inhibition of human DOP/delta 2 receptor at 10 uM by CEREP assay
[43] = biological target: Corticotropin-releasing factor receptor 1 (Homo sapiens) (UniProt P34998); test: Inhibition of human CRF1 receptor at 10 uM by CEREP assay
[44] = biological target: Substance-K receptor (Homo sapiens) (UniProt P21452); test: Inhibition of human Nk2 receptor at 10 uM by CEREP assay
[45] = biological target: Catechol O-methyltransferase (Homo sapiens) (UniProt P21964); test: Inhibition of COMT at 10 uM by CEREP assay
[46] = biological target: 5-hydroxytryptamine receptor 3A (Homo sapiens) (UniProt P46098); test: Inhibition of human 5-HT3 receptor at 10 uM by CEREP assay
[47] = biological target: 5-hydroxytryptamine receptor 7 (Homo sapiens) (UniProt P34969); test: Inhibition of human 5-HT7 receptor at 10 uM by CEREP assay
Chain of 5-hydroxytryptamine receptor 7 (Homo sapiens) (P34969 whole entry): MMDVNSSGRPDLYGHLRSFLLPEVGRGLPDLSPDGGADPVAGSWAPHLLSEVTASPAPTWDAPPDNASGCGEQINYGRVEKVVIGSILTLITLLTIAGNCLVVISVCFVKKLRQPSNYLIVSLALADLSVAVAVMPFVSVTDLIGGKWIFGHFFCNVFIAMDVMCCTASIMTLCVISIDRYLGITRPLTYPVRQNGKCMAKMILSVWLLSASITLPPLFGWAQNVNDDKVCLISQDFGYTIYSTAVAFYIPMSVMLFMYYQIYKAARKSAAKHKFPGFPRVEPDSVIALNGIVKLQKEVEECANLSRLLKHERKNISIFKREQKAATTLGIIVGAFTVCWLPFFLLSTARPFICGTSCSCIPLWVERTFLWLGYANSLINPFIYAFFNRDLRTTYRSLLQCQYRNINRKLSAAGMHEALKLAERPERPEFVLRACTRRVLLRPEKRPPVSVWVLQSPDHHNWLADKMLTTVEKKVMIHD

Chain of B1 bradykinin receptor (Homo sapiens) (P46663 whole entry): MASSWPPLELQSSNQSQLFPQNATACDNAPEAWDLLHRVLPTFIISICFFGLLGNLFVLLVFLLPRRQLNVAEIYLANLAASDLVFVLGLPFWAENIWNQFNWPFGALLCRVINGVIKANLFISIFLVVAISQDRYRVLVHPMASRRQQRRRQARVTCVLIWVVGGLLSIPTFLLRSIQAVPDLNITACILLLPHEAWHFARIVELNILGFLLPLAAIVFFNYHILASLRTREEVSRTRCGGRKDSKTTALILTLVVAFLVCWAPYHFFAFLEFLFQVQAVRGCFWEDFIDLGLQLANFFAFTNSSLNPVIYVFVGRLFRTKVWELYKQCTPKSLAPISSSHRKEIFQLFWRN
Chain of Sodium-dependent dopamine transporter (Homo sapiens) (Q01959 whole entry): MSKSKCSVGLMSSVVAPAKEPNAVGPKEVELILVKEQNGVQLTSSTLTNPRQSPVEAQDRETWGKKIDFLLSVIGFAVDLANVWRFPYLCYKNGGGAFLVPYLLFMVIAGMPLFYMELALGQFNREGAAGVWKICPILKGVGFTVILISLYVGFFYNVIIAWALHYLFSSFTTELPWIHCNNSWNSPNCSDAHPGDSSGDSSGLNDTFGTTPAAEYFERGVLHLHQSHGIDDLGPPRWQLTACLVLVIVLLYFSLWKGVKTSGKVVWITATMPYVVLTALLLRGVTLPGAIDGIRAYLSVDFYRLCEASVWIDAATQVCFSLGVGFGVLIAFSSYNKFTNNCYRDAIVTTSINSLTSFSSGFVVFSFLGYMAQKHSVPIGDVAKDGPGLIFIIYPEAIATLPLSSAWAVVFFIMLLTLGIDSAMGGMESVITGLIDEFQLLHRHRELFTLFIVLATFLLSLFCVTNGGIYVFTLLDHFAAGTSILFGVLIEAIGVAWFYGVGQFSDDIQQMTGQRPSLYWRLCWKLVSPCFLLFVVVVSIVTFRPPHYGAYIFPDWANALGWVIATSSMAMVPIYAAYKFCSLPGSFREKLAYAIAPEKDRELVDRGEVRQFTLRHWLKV
Chain of Beta-2 adrenergic receptor (Homo sapiens) (P07550 whole entry, looked up): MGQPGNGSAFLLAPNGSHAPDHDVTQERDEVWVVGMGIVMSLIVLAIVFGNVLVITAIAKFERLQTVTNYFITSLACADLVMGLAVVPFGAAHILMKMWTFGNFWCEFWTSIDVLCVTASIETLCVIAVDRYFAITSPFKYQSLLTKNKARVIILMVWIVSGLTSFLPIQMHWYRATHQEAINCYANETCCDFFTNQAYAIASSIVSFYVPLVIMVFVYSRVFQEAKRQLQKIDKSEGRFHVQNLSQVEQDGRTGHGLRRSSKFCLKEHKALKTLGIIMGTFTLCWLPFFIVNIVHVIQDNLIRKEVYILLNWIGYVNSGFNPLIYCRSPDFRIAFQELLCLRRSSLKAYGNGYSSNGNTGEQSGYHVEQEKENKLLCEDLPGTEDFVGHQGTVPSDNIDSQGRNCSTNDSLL
Chain of 5-hydroxytryptamine receptor 1D (Homo sapiens) (P28221 whole entry): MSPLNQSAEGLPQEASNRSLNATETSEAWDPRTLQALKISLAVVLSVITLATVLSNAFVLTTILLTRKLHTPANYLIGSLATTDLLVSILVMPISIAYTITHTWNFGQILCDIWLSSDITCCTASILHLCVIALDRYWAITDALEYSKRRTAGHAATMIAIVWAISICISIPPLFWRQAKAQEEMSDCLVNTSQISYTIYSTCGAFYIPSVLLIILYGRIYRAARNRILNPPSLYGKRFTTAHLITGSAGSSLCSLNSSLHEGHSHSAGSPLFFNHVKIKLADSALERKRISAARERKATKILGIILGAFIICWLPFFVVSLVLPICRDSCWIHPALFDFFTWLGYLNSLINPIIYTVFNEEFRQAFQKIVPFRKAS
Chain of Glucagon receptor (Homo sapiens) (P47871 whole entry): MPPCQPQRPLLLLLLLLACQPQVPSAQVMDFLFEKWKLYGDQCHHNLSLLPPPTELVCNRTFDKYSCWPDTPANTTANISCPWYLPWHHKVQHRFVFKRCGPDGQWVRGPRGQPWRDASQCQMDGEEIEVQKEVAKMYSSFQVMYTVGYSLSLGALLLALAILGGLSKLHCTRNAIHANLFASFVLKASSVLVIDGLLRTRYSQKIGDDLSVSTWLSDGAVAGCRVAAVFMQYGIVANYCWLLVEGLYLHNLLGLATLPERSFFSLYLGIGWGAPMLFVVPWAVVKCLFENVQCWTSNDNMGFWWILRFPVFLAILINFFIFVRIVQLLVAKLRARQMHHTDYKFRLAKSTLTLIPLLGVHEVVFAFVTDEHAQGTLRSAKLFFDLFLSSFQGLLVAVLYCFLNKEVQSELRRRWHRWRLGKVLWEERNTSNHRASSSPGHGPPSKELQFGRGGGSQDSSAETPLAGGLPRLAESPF
Chain of B2 bradykinin receptor (Homo sapiens) (P30411 whole entry): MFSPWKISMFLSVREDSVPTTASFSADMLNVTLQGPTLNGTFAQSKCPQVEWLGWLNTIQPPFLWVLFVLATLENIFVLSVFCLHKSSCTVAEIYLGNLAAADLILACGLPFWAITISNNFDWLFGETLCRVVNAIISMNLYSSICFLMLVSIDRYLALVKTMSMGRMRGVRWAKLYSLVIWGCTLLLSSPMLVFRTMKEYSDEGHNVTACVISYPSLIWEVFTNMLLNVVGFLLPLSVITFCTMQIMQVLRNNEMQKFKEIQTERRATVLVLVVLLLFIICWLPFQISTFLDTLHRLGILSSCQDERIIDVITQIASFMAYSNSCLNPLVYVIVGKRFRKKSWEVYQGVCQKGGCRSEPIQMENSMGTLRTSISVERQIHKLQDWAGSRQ
Chain of Catechol O-methyltransferase (Homo sapiens) (P21964 whole entry): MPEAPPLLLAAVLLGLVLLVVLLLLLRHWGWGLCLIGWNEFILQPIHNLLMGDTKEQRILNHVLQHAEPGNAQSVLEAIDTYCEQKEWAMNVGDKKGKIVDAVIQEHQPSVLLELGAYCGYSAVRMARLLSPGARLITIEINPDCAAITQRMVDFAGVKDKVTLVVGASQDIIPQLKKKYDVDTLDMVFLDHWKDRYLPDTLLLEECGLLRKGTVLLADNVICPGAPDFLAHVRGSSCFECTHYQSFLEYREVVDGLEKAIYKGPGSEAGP
Chain of Pituitary adenylate cyclase-activating polypeptide type I receptor (Homo sapiens) (P41586 21-468 limits assumed): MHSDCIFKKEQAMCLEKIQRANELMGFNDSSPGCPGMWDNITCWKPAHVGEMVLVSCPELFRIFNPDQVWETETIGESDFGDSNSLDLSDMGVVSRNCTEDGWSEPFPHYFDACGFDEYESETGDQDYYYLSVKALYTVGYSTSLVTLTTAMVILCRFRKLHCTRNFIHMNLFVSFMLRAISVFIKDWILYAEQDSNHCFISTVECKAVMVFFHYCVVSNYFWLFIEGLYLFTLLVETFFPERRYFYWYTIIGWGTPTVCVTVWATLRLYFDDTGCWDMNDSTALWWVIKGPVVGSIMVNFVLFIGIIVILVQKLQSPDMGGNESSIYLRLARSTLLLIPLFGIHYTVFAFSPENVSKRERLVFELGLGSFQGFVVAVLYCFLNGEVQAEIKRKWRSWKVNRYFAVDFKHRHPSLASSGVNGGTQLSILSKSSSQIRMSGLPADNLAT
Chain of 5-hydroxytryptamine receptor 1A (P08908 whole entry): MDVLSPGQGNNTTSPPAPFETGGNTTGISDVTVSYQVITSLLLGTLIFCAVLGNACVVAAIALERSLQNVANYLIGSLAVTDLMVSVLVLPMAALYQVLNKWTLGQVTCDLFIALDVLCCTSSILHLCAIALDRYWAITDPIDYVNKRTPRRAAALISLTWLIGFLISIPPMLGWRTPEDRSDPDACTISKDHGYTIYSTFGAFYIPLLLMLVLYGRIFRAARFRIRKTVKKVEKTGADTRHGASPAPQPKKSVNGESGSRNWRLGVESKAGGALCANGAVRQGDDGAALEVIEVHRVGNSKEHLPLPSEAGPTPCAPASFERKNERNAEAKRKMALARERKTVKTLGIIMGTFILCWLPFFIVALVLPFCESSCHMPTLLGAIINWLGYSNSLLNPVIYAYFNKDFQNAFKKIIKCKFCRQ
Chain of Muscarinic acetylcholine receptor M1 (Homo sapiens) (P11229 whole entry): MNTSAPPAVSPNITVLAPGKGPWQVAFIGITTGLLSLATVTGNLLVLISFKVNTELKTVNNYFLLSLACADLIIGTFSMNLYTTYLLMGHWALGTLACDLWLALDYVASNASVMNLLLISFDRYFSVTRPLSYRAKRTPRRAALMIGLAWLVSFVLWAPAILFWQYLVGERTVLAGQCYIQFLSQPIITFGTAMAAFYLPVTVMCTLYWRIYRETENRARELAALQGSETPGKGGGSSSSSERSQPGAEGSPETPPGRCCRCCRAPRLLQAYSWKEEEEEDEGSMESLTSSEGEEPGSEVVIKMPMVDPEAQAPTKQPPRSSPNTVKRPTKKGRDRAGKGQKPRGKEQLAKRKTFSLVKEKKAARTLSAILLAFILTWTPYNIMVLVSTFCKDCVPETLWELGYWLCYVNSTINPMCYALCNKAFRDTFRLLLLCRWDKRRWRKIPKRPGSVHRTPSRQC

SMILES: CCc1cccc(CC)c1Cc1ncc[nH]1
- Ki [1]: 660 nM
- inhibition [2]: 5%
- inhibition [3]: 4%
- inhibition [4]: 4%
- inhibition [5]: -4%
- inhibition [6]: 11%
- inhibition [7]: 19%
- inhibition [8]: -1%
- inhibition [9]: 1%
- inhibition [10]: 2%
- inhibition [11]: 17%
- inhibition [12]: -5%
- Cmax [13]: 300 ng/mL
- inhibition [14]: 1%
- inhibition [15]: 21%
- inhibition [16]: 1%
- inhibition [17]: -5%
- inhibition [18]: 2%
- inhibition [19]: 15%
- inhibition [20]: 6%
- inhibition [21]: 12%
- inhibition [22]: 4%
- Cmax [23]: 100 ng/mL
- inhibition [24]: 1%
- inhibition [25]: -6%
- inhibition [26]: 22%
- Ratio Ki [27]: 100
- inhibition [28]: 8%
- inhibition [29]: -3%
- inhibition [30]: -6%
- inhibition [31]: 19%
- inhibition [32]: 14%
- inhibition [33]: 1%
- inhibition [34]: 6%
- inhibition [35]: 0%
- inhibition [36]: 18%
- inhibition [37]: 3%
- inhibition [38]: 24%
- inhibition [39]: 23%
- half-life [40]: 57 min
- Ki [41]: 1300 nM
- inhibition [42]: 7%
- inhibition [43]: -4%
- inhibition [44]: 3%
- inhibition [45]: 3%
- inhibition [46]: -6%
- inhibition [47]: 54%
